Results taken from US11851681B2, “Cell preparation method” (KYOTO PREFECTURAL PUBLIC UNIVERSITY CORPORATION, priority 2015, dated 2023).
“Also recorded” adds a separate entry of the source.

Columns and labels:
[1] = system: human dermal fibroblasts; HDFs; test: Alizarin Red S staining (staining figure), fibroblast to osteoblast, Example 1; format: cell-based; details: each compound 2 μM in calcification induction medium; day 24; FIG. 1
Method: It was washed 3 times with sterile distilled water. […] The well after staining was washed with sterile distilled water and photographed.
The concentrations of the compounds are as follows: • D4476: 2 μM • ALK5 inhibitor II: 2 μM • SB431542: 2 μM.

[2] = system: human dermal fibroblasts; HDFs; test: Real-time RT-PCR of Osteocalcin and Alkaline Phosphatase, Example 3; format: cell-based; details: each compound 2 μM in calcification induction medium; day 24; FIG. 3
Method: The concentrations of the compounds are as follows: • D4476: 2 μM • SB431542: 2 μM • ALK5 inhibitor II: 2 μM.

[3] = system: human adipose derived stem cells; ADSC; details: calcification induction medium added with ALK5 inhibitor II; day 19; FIG. 5
Method: (§1) The calcification induction medium is 10% FBS DMEM added with 50 μg/ml ascorbic acid, 10 mM β-glycerophosphate and 100 nM Dexamethasone. The culture medium was exchanged with a fresh one every 3-4 days, and culturing was performed until day 19.
(§2) On day 19, the culture medium was removed from each well by suction, washed with PBS(−), and fixed with 10% formalin. It was washed 3 times with sterile distilled water. Thereafter, Alizarin Red S staining solution was added, and the mixture was incubated at room temperature for 15 min.

[4] = system: human dermal fibroblasts; HDFs; details: calcification induction medium added with ALK5 inhibitor II; day 19; FIG. 5
Method: as §1, §2

[5] = system: human dermal fibroblasts; HDFs; test: Oil Red O staining, fibroblast to brown adipocyte, Example 12; format: cell-based; details: compound 2 μM in addition to T3 1 nM and Rosiglitazone 1 μM, adipocyte induction medium; day 14; FIG. 12
Method: (§3) The concentrations of the additives are as follows: • T3: 1 nM • Rosiglitazone: 1 μM • D4476: 2 μM • Pifithrin alpha [p53 inhibitor]: 5 μM • SB431542: 2 μM • ALK5 Inhibitor II: 2 μM.
Then, the cells were washed with sterile distilled water and photographed with a phase contrast microscope at ×100 magnification.

[6] = system: human dermal fibroblasts; HDFs; test: Real-time RT-PCR of CIDEA, Example 13; format: cell-based; details: compound 2 μM in addition to T3 1 nM and Rosiglitazone 1 μM, adipocyte induction medium; day 14; FIG. 13
Method: as §3

[7] = system: human dermal fibroblasts; HDFs; test: Real-time RT-PCR of AdipoQ, Example 14; format: cell-based; details: D4476, SB431542, ALK5 Inhibitor II 2 μM, PD0325901 1 μM, in addition to T3 and Rosiglitazone; day 14; FIG. 14
Method: The concentrations of the additives are as follows: • T3: 1 nM • Rosiglitazone: 1 μM • D4476: 2 μM. • Pifithrin alpha [p53 inhibitor]: 5 μM • PD0325901: 1 μM • SB431542: 2 μM • ALK5 Inhibitor II: 2 μM.

[8] = system: Human normal skin-derived fibroblasts (HDFs); test: Alizarin Red S and ALP staining, absorbance, TGF-β pathway inhibitor panel, Examples 31-32; format: cell-based
Method: On day 21, the culture medium was removed from a part of the well, washed with PBS(-), and fixed with a fixative. It was washed 3 times with sterile distilled water. […] In the experiment of Example 31, the solution after staining with the Alizarin Red S staining solution was collected in a 96 well plate and the absorbance (OD 550 nm) was measured with an absorption spectrometer.

HDF45, HDF69, HDF22 = details: 4 μM in calcification induction medium; day 10 (ALP), day 15 (Alizarin Red S); FIG. 37, 38
Description: (§4) It was washed 3 times with sterile distilled water.
as §4

[9] = system: Human normal skin-derived fibroblasts (HDFs); test: Real-time RT-PCR of UCP1, four inhibitors, Example 39; format: cell-based
Method: The addition concentration of the compound was 4 μM, 8 μM, 12 μM or 16 μM. […] Thereafter, in Day 9-Day 14, culturing was performed in a medium free of ALK5 inhibitor II, LY2157299, SB431542, D4476.

[10] = system: Human normal skin-derived fibroblasts (HDFs); details: 4 μM in adipocyte induction medium Day 1 to Day 8; day 14; FIG. 46
Method: Human normal skin-derived fibroblasts (HDFs) were suspended in a general medium (DMEM added with 10% FBS). […] The adipocyte induction medium is DMEM added with 1 nM T3, 1 μM Rosiglitazone, 0.5 mM 3-isobutyl-1-methylxanthine (IBMX), 0.5 μM dexamethasone, 1 μg/mL Insulin and 10% FBS. […] On day 14, the culture medium was removed by suction from each well, and washed with PBS(−). […] After washing 3 times with PBS(−), Blocking One was added, and the mixture was incubated at room temperature for 60 min. Anti-UCP-1 antibody (RD MAB6158) was added and the mixture was reacted for 2 hrs at room temperature, and washed 3 times with Wash buffer. CF488-conjugated anti-mouse Ig antibody (Biotum 20014) was added and the mixture was reacted for 2 hrs at room temperature, and washed 3 times with PBS(−). After nuclear staining with SlowFade Gold antifade reagent with DAPI manufactured by Lifetechnology, the cells were photographed with a fluorescence microscope at ×100 magnification.

[11] = system: Human Epidermal Keratinocyte; NHEK (AD); test: Real-time RT-PCR of UCP1 and CIDEA, keratinocyte to brown adipocyte, Example 43; format: cell-based; details: K-adipocyte induction medium; ALK5 inhibitor II 4 μM or LY2157299 8 μM, Day 1 to Day 8; day 14; FIG. 47
Method: Normal human epidermal keratinocyte (Human Epidermal Keratinocyte; NHEK (AD)) were suspended in a serum-free liquid medium for normal human epidermal keratinocyte proliferation (HuMedia-KG2; manufactured by Kurabo).
The K-adipocyte induction medium is HuMedia-KG2 added with 1 nM T3, 1 μM Rosiglitazone, 0.5 mM 3-isobutyl-1-methylxanthine (IBMX), 0.5 μM dexamethasone, and 1 μg/mL Insulin.
Once every 2 days, the culture medium was exchanged with a fresh one, and culturing was performed from Day 1 to Day 8. Thereafter, from Day 9 to Day 14, the cells were cultured in a medium free of ALK5 inhibitor II or LY2157299. On day 14, the culture medium was removed by suction from each well, washed with PBS(−) and total RNA was extracted from the cells by using RNA easy Mini Kit manufactured by Qiagen. cDNA was synthesized from the RNA by using Rever Tra Ace qPCR RT Master Mix. This cDNA was admixed with Real-time PCR Master Mix, primers specific to UCP-1 gene, CIDEA gene or β actin gene and Taqman probe. qRT-PCR was performed using AB7300 Real-time PCR system. The mRNA level of UCP1 gene and CIDEA gene was quantified as a ratio to β-actin gene mRNA level, and calculated with the value of fibroblast cultured in the general medium as 1.

[12] = system: human dermal fibroblasts; HDFs; test: Bodipy staining in WA medium, four inhibitors, Example 48; format: cell-based; details: day 12, FIG. 52
[13] = system: human dermal fibroblasts; HDFs; details: cartilage induction medium added with 2 M ALK5 inhibitor II; day 18; FIG. 9
Method: Once every 2 days, the culture medium was exchanged with a fresh one, and culturing was performed until day 18. The cells were washed twice with PBS(−), once with 3% acetic acid solution, an alcian blue staining solution (PH2.5) (Nacalai Tesque) was added and the cells were stained for 1 hr at room temperature. The cells were washed 3 times with PBS(−) and observed under a microscope.

[14] = system: human dermal fibroblasts; HDFs; details: 4 μM in MDI medium; day 14; FIG. 24
Method: MDI medium (3-isobutyl-1-methylxanthine/dexamethasone/insulin-containing medium) is 10% FBS DMEM added with 0.5 mM 3-isobutyl-1-methylxanthine (IBMX), 0.5 μM dexamethasone, and 1 μg/mL Insulin. The culture medium was exchanged with a fresh one every 3-4 days, and culturing was performed until day 14.
On day 14, the culture medium was removed from each well by suction, washed with PBS, and total RNA was extracted from the cell with ISOGEN II. cDNA was synthesized from the RNA by using Rever Tra Ace qPCR RT Master Mix. This cDNA was admixed with Real-time PCR Master Mix, and primers specific to AdipoQ, FABP4 or β-actin gene, and Taqman probe. qRT-PCR was performed using AB7300 Real-time PCR system. The mRNA level of AdipoQ and FABP4 gene was quantified as a ratio to β-actin gene mRNA level, and calculated with the value of fibroblast cultured in MDI medium as 1.

[15] = system: human gingival fibroblasts; GFs; details: 4 μM in calcification induction medium; day 18; FIG. 28
Method: The calcification induction medium is a 10% FBS DMEM added with 50 μg/ml ascorbic acid, 10 mM β-glycerophosphate and 100 nM Dexamethasone. The culture medium was exchanged with a fresh one every 3-4 days, and culturing was performed until day 18.
On day 18, the culture medium was removed from each well by suction, washed with PBS(−), and fixed with a fixative. It was washed 3 times with sterile distilled water. The well after ALP staining was washed with sterile distilled water, and photographed with an inverted microscope at ×40 magnification.

[16] = system: human peripheral blood mononuclear cells; PBMCs; details: P-adipocyte induction medium, 4 μM; day 14; FIG. 57
Method: Human normal peripheral blood mononuclear cells (human peripheral blood mononuclear cells; PBMCs) were suspended in Control medium (RPMI1640 medium added with 10% FBS). […] P-adipocyte induction medium (adipocyte induction medium for peripheral blood mononuclear cell) was added to group 2 at 1 mL/well. P-adipocyte induction medium added with ALK5 inhibitor II at a concentration of 4 μM was added to group 3 at 1 mL/well. The P-adipocyte induction medium is RPMI1640 medium added with 10% FBS, 30 U/ml recombinant hIL-2, 1 nM T3, 1 μM Rosiglitazone, 0.5 mM 3-isobutyl-1-methylxanthine (IBMX), 0.5 μM dexamethasone and 1 μg/mL Insulin. Once every 2 days, 50% of the culture medium was exchanged with a fresh one.
On day 14, the culture medium was removed by suction from each well, washed with PBS(−) and total RNA was extracted from the cells by using RNA easy Mini Kit manufactured by Qiagen. cDNA was synthesized from the RNA by using Rever Tra Ace qPCR RT Master Mix. This cDNA was admixed with Real-time PCR Master Mix, primers specific to FABP4 gene or β actin gene and Taqman probe. qRT-PCR was performed using AB7300 Real-time PCR system. The mRNA level of FABP4 gene was quantified as a ratio to 3-actin gene mRNA level, and calculated with the value of human normal peripheral blood mononuclear cell cultured in the general medium as 1.

[17] = description, conditions not given

With `Cc1cccc(-c2n[nH]cc2-c2ccc3ncccc3n2)n1` [ALK5 inhibitor II, 2-(3-(6-Methylpyridin-2-yl)-1H-pyrazol-4-yl)-1,5-naphthyridine] the “conversion of human fibroblast to osteoblast, Alizarin Red S staining (staining figure)” value [1] was “converted to osteoblast having calcified is bone matrix production ability; also recorded: most efficiently converts fibroblast to osteoblast”, the “conversion of human fibroblast to osteoblast, Osteocalcin and Alkaline Phosphatase mRNA” value [2] was “converted to osteoblast expressing osteocalcin and alkaline phosphatase gene; also recorded: most efficiently converts fibroblast to osteoblast” and the “conversion to osteoblast, Alizarin Red S staining and OD550, fat-derived mesenchymal stem cell” value [3] was “converted to osteoblast having calcified bone matrix production ability”. The “conversion to osteoblast, Alizarin Red S staining and OD550, human fibroblast” value [4] was “converted to osteoblast having calcified bone matrix production ability”, the “conversion of fibroblast to brown adipocyte, Oil Red O staining” value [5] was “converted fibroblast to brown adipocyte” and the “conversion of fibroblast to brown adipocytes, CIDEA mRNA” value [6] was “converted fibroblast to brown adipocytes expressing mRNA of CIDEA gene”. The “conversion of fibroblast to brown adipocytes, AdipoQ mRNA” value [7] was “converted fibroblast to brown adipocytes expressing mRNA of AdipoQ gene”, the “conversion of human fibroblast to osteoblast, Alizarin Red S / ALP staining and absorbance” value ([8]; calcification induction medium, compounds 1 or 4 μM, TGF-β 10 ng/ml, day 21, FIG. 35, 36, listed as ALK5 i II) was “can strongly convert human fibroblast to osteoblast; also recorded: can most strongly convert human fibroblast to osteoblast” and the “efficiency in converting fibroblast to osteoblast (summary statement)” value [8, 17] was “highly efficient in converting fibroblast to osteoblast”. For the same molecule, the “conversion of fibroblasts from different individuals to osteoblasts, ALP and Alizarin Red S staining” value (HDF45, HDF69, HDF22) was “are converted to osteoblasts”, the “conversion of fibroblast to brown adipocyte, UCP1 mRNA” value ([9]; 4 μM, 8 μM, 12 μM or 16 μM in adipocyte induction medium Day 1 to Day 8, then compound-free to day 14, FIG. 43) was “converted fibroblast to brown adipocyte strongly expressing UCP1 gene; also recorded: most strongly induced” and the “efficiency in converting fibroblast to brown adipocyte (summary statement)” value [9, 17] was “highly efficient in converting fibroblast to brown adipocyte”. For the same molecule, the “fibroblasts converted to brown adipocyte highly expressing UCP1 protein (UCP1 positive cells in DAPI positive cells)” value [10] was “more than 90%”, the “staining with anti-UCP1 antibody” value [10] was “many cells were strongly stained with anti-UCP1 antibody” and the “conversion of epidermal keratinocyte to brown adipocyte, UCP1 and CIDEA mRNA” value [11] was “converted normal human epidermal keratinocyte to brown adipocyte expressing UCP1 gene and CIDEA gene”. The “lipid droplets stained with Bodipy, inhibitor alone” value ([12]; WA medium added with 16 μM compound alone) was “only a few cells contained lipid droplets stained with Bodipy”, the “lipid droplets stained with Bodipy / conversion to white adipocyte, inhibitor and Rosiglitazone” value ([12]; WA medium added with 16 μM compound and 1 μM Rosiglitazone) was “many cells were stained; also recorded: most strongly induced conversion of fibroblast to white adipocyte” and the “conversion of fibroblast to cartilage, alcian blue staining” value [13] was “can convert human normal skin-derived fibroblast to cartilage that produces cartilage matrix stained blue”. The “conversion of fibroblast to white adipocyte, AdipoQ and FABP4 mRNA” value [14] was “converted human skin-derived fibroblast to white adipocyte expressing AdipoQ gene and FABP4 gene”, the “conversion of gingival-derived fibroblast to osteoblast, ALP staining” value [15] was “converted human gingival-derived fibroblast to osteoblast having high ALP activity” and the “conversion of peripheral blood mononuclear cell to white adipocyte, FABP4 mRNA” value [16] was “converts human normal peripheral blood mononuclear cell to white adipocyte expressing FABP4 gene”.
